According to ChEMBL document CHEMBL3885861, “Open TG-GATES”:

Species on record: Rattus norvegicus
Test: Open TG-GATES - Regimen: Daily Repeat
Format: toxicity, organism-based, Sprague-Dawley
Design: regimen Daily Repeat, gender Male, age 6 weeks
Settings: in vivo, po, 6 mg/kg, route gavage, dose level Low; for APTT / Bas / Eos / Fbg / Hb / Ht / Lym / MCH / MCHC / MCV / Mono / Neu / PT / Plat / RBC / Ret / WBC: tissue Blood; for KIDNEY_L / KIDNEY_R / KIDNEY_TOTAL: tissue Kidney; for LIVER: tissue Liver; for A/G / ALP / ALT / AST / BUN / CRE / Ca / Cl / DBIL / GLC / IP / K / LDH / Na / PL / RALB / TBIL / TC / TG / TP / gamma-GTP: tissue Plasma

## CC(C)NNC(=O)c1ccncc1 [IPRONIAZID]
72 h, time 3 day
  TERMINAL_BW: 205.6 g
  APTT: 20.8 s
  Bas: 0%
  Eos: 1%
  Fbg: 309.2 mg/dL
  Hb: 13.5 g/dL
  Ht: 39.1%
  Lym: 78.4%
  MCH: 21.3 pg
  MCHC: 34.4%
  MCV: 61.9 fL
  Mono: 2.2%
  Neu: 17.2%
  PT: 16.2 s
  Plat: 123.8 x10_4/uL
  RBC: 632.6 x10_4/ul
  Ret: 6.8%
  WBC: 92 x10_2/uL
  KIDNEY_L: 0.9 g
  KIDNEY_R: 0.9 g
  KIDNEY_TOTAL: 1.8 g
  LIVER: 9.6 g
  A/G: 1.4
  ALP: 1667 IU/L
  ALT: 37.4 IU/L
  AST: 73.8 IU/L
  BUN: 17.2 mg/dL
  CRE: 0.2 mg/dL
  Ca: 10.6 mg/dL
  Cl: 108.8 meq/L
  DBIL: 0 mg/dL
  GLC: 187.2 mg/dL
  IP: 7.2 mg/dL
  K: 4.3 meq/L
  LDH: 266.6 IU/L
  Na: 143.2 meq/L
  PL: 146.2 mg/dL
  RALB: 3.2 g/dL
  TBIL: 0.002 mg/dL
  TC: 77.2 mg/dL
  TG: 102.2 mg/dL
  TP: 5.6 g/dL
  gamma-GTP: 1.2 IU/L
[…], time 7 day
  TERMINAL_BW: 237.7 g
  APTT: 21.4 s
  Bas: 0%
  Eos: 0.8%
  Fbg: 315.6 mg/dL
  Hb: 13.4 g/dL
  Ht: 37.5%
  Lym: 83.6%
  MCH: 21.3 pg
  MCHC: 35.6%
  MCV: 59.7 fL
  Mono: 2.2%
  Neu: 12.6%
  PT: 15.4 s
  Plat: 114 x10_4/uL
  RBC: 628.6 x10_4/ul
  Ret: 5.1%
  WBC: 110.8 x10_2/uL
  KIDNEY_L: 1 g
  KIDNEY_R: 1 g
  KIDNEY_TOTAL: 2.1 g
  LIVER: 10.7 g
  A/G: 1.2
  ALP: 1548 IU/L
  ALT: 39.8 IU/L
  AST: 72.8 IU/L
  BUN: 18 mg/dL
  CRE: 0.2 mg/dL
  Ca: 10.6 mg/dL
  Cl: 107.6 meq/L
  DBIL: 0 mg/dL
  GLC: 189.4 mg/dL
  IP: 6.5 mg/dL
  K: 4.3 meq/L
  LDH: 234.6 IU/L
  Na: 141 meq/L
  PL: 153.2 mg/dL
  RALB: 3.1 g/dL
  TBIL: 0.002 mg/dL
  TC: 76.8 mg/dL
  TG: 125.8 mg/dL
  TP: 5.6 g/dL
  gamma-GTP: 1.4 IU/L
[…], time 14 day
  TERMINAL_BW: 274.7 g
  APTT: 22.2 s
  Bas: 0%
  Eos: 1%
  Fbg: 289.4 mg/dL
  Hb: 13.8 g/dL
  Ht: 40%
  Lym: 81.6%
  MCH: 20.1 pg
  MCHC: 34.6%
  MCV: 58 fL
  Mono: 2.2%
  Neu: 14.8%
  PT: 15.7 s
  Plat: 118.3 x10_4/uL
  RBC: 690.8 x10_4/ul
  Ret: 4.7%
  WBC: 112.4 x10_2/uL
  KIDNEY_L: 1.1 g
  KIDNEY_R: 1.1 g
  KIDNEY_TOTAL: 2.2 g
  LIVER: 11.9 g
  A/G: 1.1
  ALP: 1195.8 IU/L
  ALT: 41 IU/L
  AST: 69 IU/L
  BUN: 18 mg/dL
  CRE: 0.2 mg/dL
  Ca: 10.5 mg/dL
  Cl: 107.4 meq/L
  DBIL: 0 mg/dL
  GLC: 180 mg/dL
  IP: 6.5 mg/dL
  K: 4.3 meq/L
  LDH: 160.8 IU/L
  Na: 141.2 meq/L
  PL: 161 mg/dL
  RALB: 3 g/dL
  TBIL: 0.004 mg/dL
  TC: 80.6 mg/dL
  TG: 148 mg/dL
  TP: 5.7 g/dL
  gamma-GTP: 2.2 IU/L
[…], time 28 day
  TERMINAL_BW: 367.4 g
  APTT: 22.6 s
  Bas: 0%
  Eos: 1%
  Fbg: 317 mg/dL
  Hb: 13.7 g/dL
  Ht: 39%
  Lym: 78.8%
  MCH: 20 pg
  MCHC: 35.1%
  MCV: 56.8 fL
  Mono: 2%
  Neu: 17%
  PT: 15.8 s
  Plat: 111.4 x10_4/uL
  RBC: 687.6 x10_4/ul
  Ret: 4.7%
  WBC: 109.2 x10_2/uL
  KIDNEY_L: 1.3 g
  KIDNEY_R: 1.3 g
  KIDNEY_TOTAL: 2.6 g
  LIVER: 14.7 g
  A/G: 1.1
  ALP: 1033.6 IU/L
  ALT: 42.6 IU/L
  AST: 71.8 IU/L
  BUN: 18 mg/dL
  CRE: 0.2 mg/dL
  Ca: 10.6 mg/dL
  Cl: 106.6 meq/L
  DBIL: 0 mg/dL
  GLC: 191 mg/dL
  IP: 6.2 mg/dL
  K: 4.3 meq/L
  LDH: 167.4 IU/L
  Na: 142 meq/L
  PL: 151.6 mg/dL
  RALB: 3.2 g/dL
  TBIL: 0.02 mg/dL
  TC: 77.6 mg/dL
  TG: 135.6 mg/dL
  TP: 6 g/dL
  gamma-GTP: 2 IU/L
